# Experimental data reported in the OligoGym collection.
# “And” between values parts separate entries of the source, which are not always exact repeats. Equal values may be shown once. HELM strings list units from the 5' end as sugar, base in round brackets, then linkage (d deoxyribose, r ribose, m 2'-O-methyl, p phosphodiester). Strings are as the collection lists them; they lack the last nucleoside at the 3' end of the tested compound. [moe] = 2'-O-(2-methoxyethyl) (MOE); [sp] = phosphorothioate linkage; [m5C] = 5-methylcytosine
# Biological target: SMN2
# Experiment: mouse, dose not given
# Details: ASO
row,Substance,3 h FOB score
1,RNA1{[moe](T)[sp].[moe]([m5C])[sp].[moe](A)[sp].[moe]([m5C])[sp].[moe](T)[sp].[moe](T)[sp].[moe](T)[sp].[moe]([m5C])[sp].[moe](A)[sp].[moe](T)[sp].[moe](A)[sp].[moe](A)[sp].[moe](T)[sp].[moe](G)[sp].[moe]([m5C])[sp].[moe](T)[sp].[moe](G)[sp].[moe](G)[sp].[moe]([m5C])}$$$$ (last 3' nucleoside missing),0 score 0-7
2,RNA1{[moe](T)[sp].[moe]([m5C])[sp].[moe](A)[sp].[moe]([m5C])[sp].[moe](T)[sp].[moe](T)[sp].[moe](T)[sp].[moe]([m5C])[sp].[moe](A)[sp].[moe](T)[sp].[moe](A)[sp].[moe](A)[sp].[moe](T)[sp].[moe](G)[sp].[moe]([m5C])[sp].[moe](T)[sp].[moe](G)[sp].[moe](G)p.[moe](A)}$$$$ (last 3' nucleoside missing),3.75 score 0-7 and 4 score 0-7 (3×)
3,RNA1{[moe](T)[sp].[moe]([m5C])[sp].[moe](A)[sp].[moe]([m5C])[sp].[moe](T)[sp].[moe](T)[sp].[moe](T)[sp].[moe]([m5C])[sp].[moe](A)[sp].[moe](T)[sp].[moe](A)[sp].[moe](A)[sp].[moe](T)[sp].[moe](G)[sp].[moe]([m5C])[sp].[moe](T)[sp].[moe](G)[sp].[moe](G)p.[moe](T)}$$$$ (last 3' nucleoside missing),4 score 0-7
4,RNA1{[moe](T)[sp].[moe]([m5C])[sp].[moe](A)[sp].[moe]([m5C])[sp].[moe](T)[sp].[moe](T)[sp].[moe](T)[sp].[moe]([m5C])[sp].[moe](A)[sp].[moe](T)[sp].[moe](A)[sp].[moe](A)[sp].[moe](T)[sp].[moe](G)[sp].[moe]([m5C])[sp].[moe](T)[sp].[moe](G)[sp].[moe](G)p.d(A)}$$$$ (last 3' nucleoside missing),4 score 0-7 (2×) and 4.25 score 0-7 (2×) and 3.75 score 0-7 (2×)
5,RNA1{[moe](T)[sp].[moe]([m5C])[sp].[moe](A)[sp].[moe]([m5C])[sp].[moe](T)[sp].[moe](T)[sp].[moe](T)[sp].[moe]([m5C])[sp].[moe](A)[sp].[moe](T)[sp].[moe](A)[sp].[moe](A)[sp].[moe](T)[sp].[moe](G)[sp].[moe]([m5C])[sp].[moe](T)[sp].[moe](G)[sp].[moe](G)p.d([m5C])}$$$$ (last 3' nucleoside missing),4 score 0-7 (2×) and 3.75 score 0-7 (2×) and 3.5 score 0-7
6,RNA1{[moe](T)[sp].[moe]([m5C])[sp].[moe](A)[sp].[moe]([m5C])[sp].[moe](T)[sp].[moe](T)[sp].[moe](T)[sp].[moe]([m5C])[sp].[moe](A)[sp].[moe](T)[sp].[moe](A)[sp].[moe](A)[sp].[moe](T)[sp].[moe](G)[sp].[moe]([m5C])p.[moe](T)[sp].[moe](G)[sp].[moe](G)}$$$$ (last 3' nucleoside missing),2.25 score 0-7 (2×) and 2.5 score 0-7 and 2 score 0-7
7,RNA1{[moe](T)[sp].[moe]([m5C])[sp].[moe](A)[sp].[moe]([m5C])[sp].[moe](T)[sp].[moe](T)[sp].[moe](T)[sp].[moe]([m5C])[sp].[moe](A)[sp].[moe](T)[sp].[moe](A)[sp].[moe](A)[sp].[moe](T)[sp].[moe](G)[sp].[moe]([m5C])p.[moe](T)[sp].[moe](G)}$$$$ (last 3' nucleoside missing),2.75 score 0-7
8,RNA1{[moe](T)[sp].[moe]([m5C])[sp].[moe](A)[sp].[moe]([m5C])[sp].[moe](T)[sp].[moe](T)[sp].[moe](T)[sp].[moe]([m5C])[sp].[moe](A)[sp].[moe](T)[sp].[moe](A)[sp].[moe](A)[sp].[moe](T)[sp].[moe](G)p.[moe]([m5C])[sp].[moe](T)[sp].[moe](G)}$$$$ (last 3' nucleoside missing),3.75 score 0-7
9,RNA1{[moe](T)[sp].[moe]([m5C])[sp].[moe](A)[sp].[moe]([m5C])[sp].[moe](T)[sp].[moe](T)[sp].[moe](T)[sp].[moe]([m5C])[sp].[moe](A)[sp].[moe](T)[sp].[moe](A)[sp].[moe](A)[sp].[moe](T)[sp].[moe](G)p.[moe]([m5C])p.[moe](T)[sp].[moe](G)}$$$$ (last 3' nucleoside missing),3.5 score 0-7
10,RNA1{[moe](T)[sp].[moe]([m5C])[sp].[moe](A)[sp].[moe]([m5C])[sp].[moe](T)[sp].[moe](T)[sp].[moe](T)[sp].[moe]([m5C])[sp].[moe](A)[sp].[moe](T)[sp].[moe](A)[sp].[moe](A)[sp].[moe](T)p.[moe](G)[sp].[moe]([m5C])p.[moe](T)[sp].[moe](G)[sp].[moe](G)}$$$$ (last 3' nucleoside missing),1 score 0-7 and 2 score 0-7 and 1.25 score 0-7 (2×)
11,RNA1{[moe](T)[sp].[moe]([m5C])[sp].[moe](A)[sp].[moe]([m5C])[sp].[moe](T)[sp].[moe](T)[sp].[moe](T)[sp].[moe]([m5C])[sp].[moe](A)[sp].[moe](T)[sp].[moe](A)[sp].[moe](A)[sp].[moe](T)p.[moe](G)[sp].[moe]([m5C])p.[moe](T)[sp].[moe](G)}$$$$ (last 3' nucleoside missing),3 score 0-7
12,RNA1{[moe](T)[sp].[moe]([m5C])[sp].[moe](A)[sp].[moe]([m5C])[sp].[moe](T)[sp].[moe](T)[sp].[moe](T)[sp].[moe]([m5C])[sp].[moe](A)[sp].[moe](T)[sp].[moe](A)[sp].[moe](A)p.[moe](T)[sp].[moe](G)[sp].[moe]([m5C])[sp].[moe](T)[sp].[moe](G)}$$$$ (last 3' nucleoside missing),3.5 score 0-7
13,RNA1{[moe](T)[sp].[moe]([m5C])[sp].[moe](A)[sp].[moe]([m5C])[sp].[moe](T)[sp].[moe](T)[sp].[moe](T)[sp].[moe]([m5C])[sp].[moe](A)[sp].[moe](T)[sp].[moe](A)[sp].[moe](A)p.[moe](T)[sp].[moe](G)p.[moe]([m5C])[sp].[moe](T)[sp].[moe](G)}$$$$ (last 3' nucleoside missing),2.5 score 0-7
14,RNA1{[moe](T)[sp].[moe]([m5C])[sp].[moe](A)[sp].[moe]([m5C])[sp].[moe](T)[sp].[moe](T)[sp].[moe](T)[sp].[moe]([m5C])[sp].[moe](A)[sp].[moe](T)[sp].[moe](A)p.[moe](A)[sp].[moe](T)[sp].[moe](G)p.[moe]([m5C])[sp].[moe](T)[sp].[moe](G)}$$$$ (last 3' nucleoside missing),2 score 0-7
15,RNA1{[moe](T)[sp].[moe]([m5C])[sp].[moe](A)[sp].[moe]([m5C])[sp].[moe](T)[sp].[moe](T)[sp].[moe](T)[sp].[moe]([m5C])[sp].[moe](A)[sp].[moe](T)p.[moe](A)[sp].[moe](A)[sp].[moe](T)[sp].[moe](G)[sp].[moe]([m5C])[sp].[moe](T)[sp].[moe](G)}$$$$ (last 3' nucleoside missing),3 score 0-7
16,RNA1{[moe](T)[sp].[moe]([m5C])[sp].[moe](A)[sp].[moe]([m5C])[sp].[moe](T)[sp].[moe](T)[sp].[moe](T)[sp].[moe]([m5C])[sp].[moe](A)[sp].[moe](T)p.[moe](A)[sp].[moe](A)[sp].[moe](T)[sp].[moe](G)p.[moe]([m5C])[sp].[moe](T)[sp].[moe](G)}$$$$ (last 3' nucleoside missing),3.5 score 0-7
